Assay results as given in publication PMC10003107, “Selectivity of Hydroxamate- and Difluoromethyloxadiazole-Based Inhibitors of Histone Deacetylase 6 In Vitro and in Cells” (International Journal of Molecular Sciences, 2023).
Like-named read-outs stand apart in the source and are kept apart here.

Experiments:
HDAC1-nanoLuc = HDAC1-nanoLuc (Homo sapiens, UniProt Q13547); assay: nanoBRET target engagement assay, HDAC1; type: cell-based; conditions: HEK293T/17 cells stably expressing HDAC1-nanoLuc, 2 h
HDAC1 [1] = molecular target: T1, HDAC1 (Homo sapiens, UniProt Q13547); assay: In vitro deacetylation assay, HDAC1 (RHKK substrate); type: biochemical; conditions: for IC50: purified human HDAC1, RHK[AcK]-AMC (RHKK) substrate
T1 construct: HDAC1 1-482 Addgene; Strep-FLAG-HALO (N); made in house; host or cells: HEK293/T17

tubulin acetylation = assay: Tubulin acetylation in RPMI-8226 cells by quantitative Western blotting; type: cell-based
HDAC1 [2] = molecular target: T1, HDAC1; assay: In vitro deacetylation assay, HDAC1 (GAK substrate); type: biochemical; conditions: for IC50: purified human HDAC1, GAK substrate 10 µM
RPMI-8226 lymphoblasts = assay: MTT viability assay; type: cell-based; conditions: RPMI-8226 cells, 48 h; for EC50: read-out: EC50 cytotoxicity (MTT viability)
Experimental: (§1) RPMI-8226 lymphoblasts (ATTC #CCL-155) were used to assess the cytotoxicity of tested compounds. […] Dilution series of tested inhibitors were prepared as 10x stock solutions in PBS and 10 μL was added to cells and incubated under a 5% CO2 atmosphere at 37 °C, for 2 days. Following incubation, 10 μL of MTT reagent (3-(4,5-dimethylthiazol-2-yl)-2,5-diphenyltetrazolium bromide, 5 mg/mL in PBS, Sigma Aldrich) was added to each well and incubated for 90 min, 37 °C, 5% CO2. […]

MTT viability assay = type: cell-based; conditions: human, RPMI-8226 lymphoblasts, RPMI-8226 cells, read-out: EC50 cytotoxicity (MTT viability)
Experimental: as §1

histone H3 acetylation = assay: Histone H3 (K9/K14) acetylation in RPMI-8226 cells by Western blotting; type: cell-based; conditions: 6 h, Western blot
HDAC10 = molecular target: T2, HDAC10 (Homo sapiens, UniProt Q969S8); assay: In vitro deacetylation assay, HDAC10 (fluorescein-labeled N8-acetylspermidine, RP-HPLC); type: biochemical
T2 construct: HDAC10 1 – 667 Open Biosystems; Strep-FLAG-HALO (N); made in house; host or cells: HEK293/T17
T2 sequence (Q969S8 1-667): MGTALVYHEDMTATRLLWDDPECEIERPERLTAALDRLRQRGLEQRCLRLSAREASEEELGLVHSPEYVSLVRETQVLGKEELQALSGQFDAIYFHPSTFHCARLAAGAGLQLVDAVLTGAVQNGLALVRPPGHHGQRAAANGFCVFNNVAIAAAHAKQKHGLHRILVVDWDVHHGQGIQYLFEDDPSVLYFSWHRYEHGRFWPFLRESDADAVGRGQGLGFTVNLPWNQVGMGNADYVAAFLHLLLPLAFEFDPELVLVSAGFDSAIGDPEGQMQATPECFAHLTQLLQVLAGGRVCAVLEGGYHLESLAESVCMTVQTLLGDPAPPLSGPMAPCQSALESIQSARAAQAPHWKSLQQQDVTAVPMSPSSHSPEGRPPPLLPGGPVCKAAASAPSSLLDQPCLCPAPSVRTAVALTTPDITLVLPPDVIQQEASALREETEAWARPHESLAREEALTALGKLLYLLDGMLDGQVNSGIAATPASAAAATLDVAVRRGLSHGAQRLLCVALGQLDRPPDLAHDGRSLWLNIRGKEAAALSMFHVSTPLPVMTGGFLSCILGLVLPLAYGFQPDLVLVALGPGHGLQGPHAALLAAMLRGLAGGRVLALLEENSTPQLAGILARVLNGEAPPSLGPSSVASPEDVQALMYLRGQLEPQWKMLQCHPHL

HDAC6 = molecular target: T3, HDAC6 (Homo sapiens, UniProt Q9UBN7); assay: In vitro deacetylation assay, HDAC6 (GAK substrate); type: biochemical; conditions: purified human HDAC6, Ac-GAK-Ac-AMC (GAK) substrate 10 µM
T3 construct: HDAC6 2-1215 Open Biosystems; Strep-FLAG-HALO (N); made in house; host or cells: HEK293/T17
T3 sequence (Q9UBN7 2-1215): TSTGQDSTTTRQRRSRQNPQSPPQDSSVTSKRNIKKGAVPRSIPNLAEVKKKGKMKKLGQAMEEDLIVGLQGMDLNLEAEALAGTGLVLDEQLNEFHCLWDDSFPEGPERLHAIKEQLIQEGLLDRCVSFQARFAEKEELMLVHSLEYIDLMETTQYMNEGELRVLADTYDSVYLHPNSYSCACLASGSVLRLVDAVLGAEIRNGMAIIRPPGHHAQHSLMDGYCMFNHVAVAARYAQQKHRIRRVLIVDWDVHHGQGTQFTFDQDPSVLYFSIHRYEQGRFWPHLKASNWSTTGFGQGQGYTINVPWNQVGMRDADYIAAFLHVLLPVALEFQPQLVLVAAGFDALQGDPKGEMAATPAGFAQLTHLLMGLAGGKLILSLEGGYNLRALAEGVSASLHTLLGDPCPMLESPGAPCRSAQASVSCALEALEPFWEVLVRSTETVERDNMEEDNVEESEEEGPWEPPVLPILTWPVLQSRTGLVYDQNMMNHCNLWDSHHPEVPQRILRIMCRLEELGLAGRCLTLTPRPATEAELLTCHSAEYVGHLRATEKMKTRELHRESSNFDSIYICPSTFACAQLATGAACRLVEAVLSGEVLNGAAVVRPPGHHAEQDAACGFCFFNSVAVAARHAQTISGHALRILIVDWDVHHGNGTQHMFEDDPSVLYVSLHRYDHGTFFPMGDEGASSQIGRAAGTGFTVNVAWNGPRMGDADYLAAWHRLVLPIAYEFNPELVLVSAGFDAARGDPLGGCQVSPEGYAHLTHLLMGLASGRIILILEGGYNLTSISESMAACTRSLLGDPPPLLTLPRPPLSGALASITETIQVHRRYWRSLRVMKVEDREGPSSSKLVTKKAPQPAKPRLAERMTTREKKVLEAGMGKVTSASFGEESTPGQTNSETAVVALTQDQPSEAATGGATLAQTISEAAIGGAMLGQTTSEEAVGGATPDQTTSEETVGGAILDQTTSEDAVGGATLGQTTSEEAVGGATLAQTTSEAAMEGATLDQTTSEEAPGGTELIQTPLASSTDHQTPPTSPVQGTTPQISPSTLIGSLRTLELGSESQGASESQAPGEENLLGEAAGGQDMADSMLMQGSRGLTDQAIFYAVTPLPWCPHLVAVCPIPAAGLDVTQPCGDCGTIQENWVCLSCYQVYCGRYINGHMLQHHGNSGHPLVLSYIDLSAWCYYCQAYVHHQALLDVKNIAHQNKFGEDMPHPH

[3] = Homo sapiens, RPMI-8226, 6 h, read-out: IC50 tubulin deacetylation (relative tubulin acetylation), RPMI-8226 cells, 6 h, Western blot; called EC50 in text

T1 sequence (Q13547 whole entry): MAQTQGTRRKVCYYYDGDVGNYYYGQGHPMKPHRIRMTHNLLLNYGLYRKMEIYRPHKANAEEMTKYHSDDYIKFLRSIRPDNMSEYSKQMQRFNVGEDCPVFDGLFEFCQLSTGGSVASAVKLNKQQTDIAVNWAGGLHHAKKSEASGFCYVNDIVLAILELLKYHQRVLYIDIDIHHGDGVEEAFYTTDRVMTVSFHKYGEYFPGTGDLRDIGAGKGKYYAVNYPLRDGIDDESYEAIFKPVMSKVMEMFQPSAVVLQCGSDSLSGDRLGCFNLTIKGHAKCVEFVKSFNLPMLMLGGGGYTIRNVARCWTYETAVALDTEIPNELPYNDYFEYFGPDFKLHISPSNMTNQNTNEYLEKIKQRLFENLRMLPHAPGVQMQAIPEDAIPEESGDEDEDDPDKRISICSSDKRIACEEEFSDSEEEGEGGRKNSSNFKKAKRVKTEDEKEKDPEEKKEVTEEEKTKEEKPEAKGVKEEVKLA
HDAC1-nanoLuc, sequence (Q13547 whole entry): as above

Row | SMILES | IC50 (HDAC1 [1]) | IC50 (tubulin acetylation; [3]) | IC50 (HDAC1 [2]) | EC50 (RPMI-8226 lymphoblasts) | EC50 at 48 h (MTT viability assay) | effect on histone H3 (K9/K14) acetylation, class I HDAC inhibition (histone H3 acetylation) | also measured
1 | O=C(CCCCCCC(=O)Nc1ccc([C@H]2O[C@@H](CSc3nc(-c4ccccc4)c(-c4ccccc4)o3)C[C@@H](c3ccc(CO)cc3)O2)cc1)NO [Tubacin] | 15100 nM | 1710 nM | 102 nM | 6500 nM | 6510 nM |  | EC50 (HDAC1-nanoLuc): 13200 nM; IC50 (tubulin acetylation; read-out: IC50 tubulin deacetylation (relative tubulin acetylation); RPMI-8226 cells, 6 h, Western blot; called EC50 in text): 1700 nM; EC50 (HDAC1 [2]; Figure 2C, in vitro data (GAK) in μM): 0.1 µM
2 | O=C(CCCCCCNC(=O)c1cnc(N(c2ccccc2)c2ccccc2)nc1)NO [ACY-1215, rocilinostat] |  | 619 nM |  | 2900 nM | 2890 nM | the most potent class I HDAC inhibitors | IC50 (HDAC10): 18.2 nM
3 | CN1CCc2c(c3ccccc3n2Cc2ccc(C(=O)NO)cc2)C1 [Tub A, Tubastatin A] |  |  |  |  | 21600 nM |  | IC50 (tubulin acetylation; Homo sapiens, RPMI-8226, 6 h; read-out: IC50 tubulin deacetylation (relative tubulin acetylation)): 985 nM; effect on cell viability (RPMI-8226 lymphoblasts; MTT): less pronounced effects on cell viability at high inhibitor concentrations
4 | CC(/C=C/C(=O)NO)=C\[C@@H](C)C(=O)c1ccc(N(C)C)cc1 [TSA, Trichostatin A] |  |  |  | 240 nM | 237 nM | the most potent class I HDAC inhibitors | IC50 (tubulin acetylation; Homo sapiens, RPMI-8226, 6 h, read-out: IC50 tubulin deacetylation (relative tubulin acetylation)): 136 nM; IC50 (tubulin acetylation; Homo sapiens, RPMI-8226, 6 h, read-out: potency to inhibit tubulin deacetylation): 136 nM; IC50 (tubulin acetylation; read-out: IC50 tubulin deacetylation (relative tubulin acetylation)): 140 nM
5 | CCCCN(Cc1ccc(C(=O)NO)cc1)C(=O)Nc1ccccc1 [Next A, Nexturastat A] |  | 249 nM |  | 2800 nM | 2810 nM |  | 
6 | CS(=O)(=O)N(Cc1ccc(C(=O)NO)cn1)c1cccc(Cl)c1 [compound 6, 6-((N-(3-Chlorophenyl)methylsulfonamido)methyl)-N-hydroxynicotinamide] | 281 nM |  | 49.2 nM |  | 998 nM |  | IC50 (HDAC10; purified human HDAC10, read-out: IC50 HDAC10): 68.3 nM; SI (HD6/HD10) (HDAC10; ratio of IC50 HDAC10 divided by IC50 HDAC6): 195; SI (HD6/HD1) RHKK (HDAC1 [1]; ratio of IC50 HDAC1 (RHKK) divided by IC50 HDAC6): 803; SI (HD6/HD1) GAK, in vitro (HDAC1 [2]; ratio of IC50 HDAC1 (GAK) divided by IC50 HDAC6): 141; IC50 (HDAC6): 0.35 nM
